{
  "source": "paper PMC6811774",
  "about": "“Potent, selective, and subunit‐dependent activation of TRPC5 channels by a xanthine derivative” (British Journal of Pharmacology, 2019)",
  "molecular_target": "T1, TRPC5:C5 channels (hTRPC5) (Homo sapiens, UniProt Q9UL62)",
  "T1 construct": "expressed in transfected cells",
  "T1 sequence (Q9UL62 1-973)": "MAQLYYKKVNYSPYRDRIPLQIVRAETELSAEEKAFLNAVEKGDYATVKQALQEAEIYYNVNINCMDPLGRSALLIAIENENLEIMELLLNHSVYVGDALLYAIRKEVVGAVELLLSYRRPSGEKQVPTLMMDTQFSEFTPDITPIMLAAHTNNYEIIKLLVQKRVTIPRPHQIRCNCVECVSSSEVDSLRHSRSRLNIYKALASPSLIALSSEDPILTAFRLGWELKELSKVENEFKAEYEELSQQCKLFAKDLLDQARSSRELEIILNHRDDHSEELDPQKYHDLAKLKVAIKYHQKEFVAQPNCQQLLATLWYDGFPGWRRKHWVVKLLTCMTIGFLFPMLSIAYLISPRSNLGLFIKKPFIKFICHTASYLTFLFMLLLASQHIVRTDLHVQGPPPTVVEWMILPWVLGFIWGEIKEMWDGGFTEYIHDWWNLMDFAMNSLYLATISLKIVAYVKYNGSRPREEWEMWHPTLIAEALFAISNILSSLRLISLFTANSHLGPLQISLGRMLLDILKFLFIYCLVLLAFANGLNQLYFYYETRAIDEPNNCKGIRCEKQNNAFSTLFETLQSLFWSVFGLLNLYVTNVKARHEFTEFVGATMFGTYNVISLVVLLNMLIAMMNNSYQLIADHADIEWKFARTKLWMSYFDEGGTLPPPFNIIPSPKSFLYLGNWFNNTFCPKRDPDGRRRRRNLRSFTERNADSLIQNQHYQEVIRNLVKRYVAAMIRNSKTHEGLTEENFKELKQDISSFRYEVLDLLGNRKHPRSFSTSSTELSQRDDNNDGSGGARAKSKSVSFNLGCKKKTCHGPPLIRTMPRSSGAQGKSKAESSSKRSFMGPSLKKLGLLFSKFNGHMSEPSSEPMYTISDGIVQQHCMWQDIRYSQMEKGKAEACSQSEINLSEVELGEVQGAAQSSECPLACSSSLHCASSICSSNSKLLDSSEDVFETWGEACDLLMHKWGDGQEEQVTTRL",
  "test": "Excised outside-out patch-clamp, hTRPC5-expressing HEK (Tet+) T-REx cells",
  "type": "cell-based",
  "procedure": "For electrophysiology experiments, cells were plated at a low density of 20–30% onto round or square glass coverslips (13 mm diameter or 5 × 5 mm), and TRPC expression in HEK T‐REx was induced with 1 μg·ml^−1 tetracycline 24 hr before experimentation. Experiments were carried out at room temperature. Extracellular solution consisted of SBS. Patch‐clamp recordings were performed in whole‐cell mode (Figure S7) and in excised outside‐out patch mode under voltage clamp at room temperature using 2–4 MΩ patch pipettes fabricated from borosilicate glass capillaries with an outside diameter of 1 mm and an inside diameter of 0.58 mm (Harvard Apparatus). The voltage protocol comprised voltage ramps applied from −100 to +100 mV every 10 s from a holding potential of 0 mV. The patch‐clamp currents were recorded using Axopatch 200B or HEKA EPC‐800 amplifiers, digitized by a Digidata 1440 or PCI6229 (National Instruments Japan, Tokyo, Japan) and recorded to a computer using pCLAMP10 (Molecular Devices) or WinWCPV4.5 (developed by Dr John Dempster, University of Strathclyde, UK). The data were filtered at 1 kHz and analysed offline using Clampfit 10.2 software or WinWCPV4.5 and Origin 9.1 software (OriginLab, Northampton, MA). The bath solution consisted of SBS and the pipette solution (intracellular solution) contained 145‐mM CsCl, 2‐mM MgCl2, 10‐mM HEPES, 1‐mM EGTA (free acid), 5‐mM ATP (sodium salt), and 0.1‐mM NaGTP, titrated to pH 7.2 with CsOH. All solutions were filtered using a 0.2 μm filter (Sartorius, UK). Comparisons of peak current sizes mediated by EA‐activated TRPC1/4/5 channels in whole cells and excised outside‐out patches are provided in Figure S12.",
  "data": [
    {"compound": "Cn1c(=O)n(CCCO)c(=O)c2c1nc(Oc1ccc(Cl)c(OC(F)(F)F)c1)n2Cc1ccc(Cl)cc1", "note": "[AM237]", "values": [
      {"measurement": "Effect on inward and outward currents induced by EA", "setting": "30 nM EA, outside-out patch", "result": "partially suppressed"},
      {"measurement": "Amplitude of outward current response compared to response induced by 30-nM EA", "setting": "+100 mV, outside-out patch", "result": "up to 45%"},
      {"measurement": "Amplitude of inward current response compared to response induced by 30-nM EA", "setting": "-100 mV, outside-out patch", "result": "up to 25%"},
      {"measurement": "Concentration giving peak current", "setting": "in the presence of 1- and 3-nM Pico145, decreasing at 300 nM and 1 μM", "result": 100, "unit": "nM"},
      {"measurement": "Concentration giving maximum current response", "setting": "no Pico145, lower responses at 100 nM", "result": 30, "unit": "nM"}
    ]}
  ]
}
